Key:
[1] = target: T1, Gag-Pol polyprotein [600-1027,R876K]/[600-1155] (Human immunodeficiency virus 1, UniProt P03366, R876K); experiment: HIV-1 RT Assay
T1 construct: 600-1027; 600-1155

[2] = target: T2, Gag-Pol polyprotein [600-1027,Y780C]/[600-1155,Y780C] (Human immunodeficiency virus 1, UniProt P03366, Y780C); experiment: HIV-1 RT Assay; settings: pH 7.8; 22 °C
T2 construct: 600-1027; 600-1155

Row | SMILES | IC50 [1] | other results
1 | CCN1c2ncc(COc3cc[n+]([O-])c(C)c3)cc2C(=O)N(C)c2ccc(Cl)nc21 [2-Chloro-5,11-dihydro-11-ethyl-5-methyl-8-((4-(2-methyl-1-oxo-pyridinyl))oxy)methyl-6H-dipyrido[3,2-b:2 ,3-e][1,4]diazepin-6-one] | 0.1 µM | 
2 | CCN1c2ncc(CNc3cccc(N)c3)cc2C(=O)N(C)c2ccc(Cl)nc21 [13-{[(3-aminophenyl)amino]methyl}-5-chloro-2-ethyl-9-methyl-2,4,9,15-tetraazatricyclo[9.4.0.0^{3,8}]pentadeca-1(11),3,5,7,12,14-hexaen-10-one] |  | IC50 [2]: 0.1 µM
3 | CCN1c2ncc(CS(=O)(=O)c3ccccc3)cc2C(=O)N(C)c2ccc(Cl)nc21 [13-[(benzenesulfonyl)methyl]-5-chloro-2-ethyl-9-methyl-2,4,9,15-tetraazatricyclo[9.4.0.0^{3,8}]pentadeca-1(15),3(8),4,6,11,13-hexaen-10-one] | 0.1 µM | 
4 | CCN1c2ncc(COc3ccccc3O)cc2C(=O)N(C)c2ccc(Cl)nc21 [5-chloro-2-ethyl-13-(2-hydroxyphenoxymethyl)-9-methyl-2,4,9,15-tetraazatricyclo[9.4.0.0^{3,8}]pentadeca-1(11),3,5,7,12,14-hexaen-10-one] |  | IC50 ([1]; pH 7.8, 22 °C): 0.1 µM
